Results from US9585854B2, “N-acetyl-L-cysteine for use in in vitro fertilization” (IASOMAI AB, priority 2012, dated 2017).
Read-outs that look alike come from different tables or passages of the source. Where a SMILES comes first, the peptide text is derived from it. Bridges are numbered along the chain shown (N, C = ends). [ ]: non-standard residue; d: D form. Orn = NCCC[C@H](N)C(=O)O; Mpa = O=C(O)CCS

Experiments:
[1] = test system: pregnancy rates after IVF-ET; settings: cited from earlier work
[2] = test system: oxytocin antagonist; implantation after IVF; settings: cited from earlier work
embryo implantation = embryo implantation in oxytocin-treated mice; format: in vivo; settings: mice given oxytocin
Text: Indeed, in mice, NAC was confirmed to support embryo implantation. In the animal model, embryo implantation rate was decreased when the mice were given oxytocin.
In mice, NAC was confirmed to support embryo implantation. In the animal model, embryo implantation rate was decreased when the mice were given oxytocin.

[3] = test system: RGD recognition sites on integrins; settings: cited from earlier work
[4] = test system: Isolated uteri from virgin Wistar rats; assay: isolated organ bath study of uterine contractions; design: species or system rat
Method: Animals were kept at 22° C., housed 3 per cage and fed ad libitum. Isolated uteri from virgin Wistar rats (200-280 g) in estrous, which was determined by examination of a daily vaginal smear, were used.
Protamine sulphate (PS) and NAC were dissolved in pure water.
All rats were sacrificed by cervical dislocation. The uterine horns were excised, carefully cleaned and mounted vertically in a 10 ml volume organ bath containing De Jalon's solution (NaCl 154 mM, KCl 5.6 mM, CaCl2×2H2O 0.41 mM, NaHCO 2 5.9 mM and glucose 2.8 mM), under 1 g tension, aerated with 95% oxygen and 5% carbon dioxide at 37° C. […] After 10 min increasing concentrations of PS were added until the total cessation of contractions was observed.
Myometrial tension was recorded isometrically with an organ bath and transducer.
Effects of treatments on uterine contractions were calculated as percentages for control, untreated and contracting conditions. Each data value is expressed as the mean±SEM. differences between groups were analyzed by two-way ANOVA. EC50 values were compared using one-way ANOVA

Molecule: CC(=O)[C@H]1CC[C@H]2[C@@H]3CCC4=CC(=O)CC[C@]4(C)[C@H]3CC[C@]12C [Progesterone]
- effect on pregnancy rates [1]: no benefit

Molecule: CCOc1ccc(C[C@H]2NC(=O)CCSSC[C@@H](C(=O)N3CCC[C@H]3C(=O)N[C@@H](CCCN)C(=O)NCC(N)=O)NC(=O)[C@H](CC(N)=O)NC(=O)[C@H]([C@@H](C)O)NC(=O)[C@H]([C@@H](C)CC)NC2=O)cc1 [atosiban] ([Mpa][dY](Et)ITNCP[Orn]G-NH2; disulfide 1-6)
- Implantation rates per embryo transferred ([2]; total i.v. dose 37.5 mg before and up to 2 h after embryo transfer, placebo 12.6%): 20.4%
- early miscarriages ([2]; total i.v. dose 37.5 mg, placebo 24.4%): 16.7%
- clinical pregnancy rates per cycle ([2]; total i.v. dose 37.5 mg, placebo 28.9%): 46.7%

Molecule: CC[C@H](C)[C@@H]1NC(=O)[C@H](Cc2ccc(O)cc2)NC(=O)[C@@H](N)CSSC[C@@H](C(=O)N2CCC[C@H]2C(=O)N[C@@H](CC(C)C)C(=O)NCC(N)=O)NC(=O)[C@H](CC(N)=O)NC(=O)[C@H](CCC(N)=O)NC1=O [oxytocin]
- embryo implantation rate (embryo implantation): decreased

Molecule: CN1C(C(=O)Nc2ccccn2)=C(O)c2ccccc2S1(=O)=O [piroxicam]
- effect on pregnancy rates [1]: positive effect

Molecule: CC(NCCc1ccc(O)cc1)C(O)c1ccc(O)cc1 (stereo not drawn) [ritodrine]
- effect on pregnancy rates [1]: positive effect

Molecule: Arg-Gly-Asp (RGD) peptide [RGD peptide]
- rat blastocyst attachment to Ishikawa cells ([3]; either the blastocysts or the Ishikawa cells pre-incubated): significant reduction in blastocyst attachment
- rat blastocyst attachment to Ishikawa cells ([3]; pre-treatment of both blastocysts and Ishikawa cells): inhibited blastocyst attachment, but not completely

Molecule: Protamine sulphate [PS]
- relaxation of uterine contractions ([4]; calcium ion-induced uterine contractions): dose-dependent relaxation
- relaxation of uterine contractions ([4]; spontaneously active uteri): dose-dependent relaxation
- EC50 for PS-treated uteri ([4]; spontaneously active vs calcium ion-induced uteri): lower in spontaneously active uteri than in calcium ion-induced uteri
